Experimental data as given in US4657924A, “Nafazatrom as a lipoxygenase inhibitor” (priority 1983, dated 1987).

Assays:
[1] = test system: v.jugularis, a.carotis and a.femoralis; conditions: Seuter et al., 1979; cited from earlier work
[2] = test system: Lipoxygenase (leukotriene B4 biosynthesis in human PMN leucocytes); assay: Lipoxygenase inhibition: inhibition of leukotriene B4 biosynthesis in human PMN leucocytes; format: cell-based
Description: The human PMN leucocytes (95%) used in the present example were obtained from heparinized complete blood by dextran sedimentation and subsequent density gradient separation (Ficoll-Paque) (compare A. Boyum, Scand. J. Immunol., 5, Suppl. 5, 9, 1976).
2×10^7 cells/ml were suspended in Dulbecco phosphate buffer containing Ca^2+ and were incubated with radioactively labelled arachidonic acid and the calcium ionophor A 23187 in the presence or absence of lipoxygenase inhibitor. After 15 minutes, the labelled lipoxygenase products were extracted from the acidified incubation medium and were separated by thin layer chromatography using a mobile phase mixture suitable for the leukotrienes (5-HETE-LTB4) (compare B. Jakschik et al., Biochem.Biophys.Res.Commun., 102, 624, 1981).
The distribution of the activity amongst the various metabolites was measured by a thin layer scanner. It is a measure of the lipoxygenase-inhibiting action of a test substance at a certain concentration.
The lipoxygenase metabolites were also additionally determined independently by means of high pressure liquid chromatography. This method enables the endogenous arachidonic acid metabolism to be studied with the aid of UV detection of the leukotrienes. In this method, the cells were treated as described above, with the exception that no radioactively labelled arachidonic acid was added exogenously. The high pressure liquid chromatography was carried out on Lichrosorb RP-18 (5 μm) columns. The mobile phase was methanol/water/glacial acetic acid 69/31/0.01. The flow rate was 1 ml/minute. Leukotriene B4 was determined at 232 nm, in each case by means of UV absorption.

[3] = test system: coronary arteries of dogs; conditions: cited from earlier work
[4] = test system: 12-lipoxygenase; assay: 12-lipoxygenase inhibition; format: biochemical; conditions: these concentrations (>10 μg/ml)
[5] = test system: disorders in cardiac rhythm following coronary ligature; assay: Coronary artery ligation in rats: disorders in cardiac rhythm; format: in vivo, rat (Wistar); conditions: for Duration of VF (seconds), early / Duration of VT (seconds), early / Extrasystoles %, early: 0-10 minutes; for Duration of VF (seconds), late / Duration of VT (seconds), late / Extrasystoles %, late: 2-4 hours
From the text: Ligation of the left coronary artery of the rat heart and the disorders in cardiac rhythm which thereby occur form a relatively simple model for investigating substances having antiarrhythmic actions and effects on the developing myocardial ischaemia (Clark et al., J. Pharmacol. Meth. 3, 357, 1980). The effects of nafazatrom on antiarrhythmic and antiischaemic properties in conscious rats was investigated in this model. Particular importance was placed on the severity and quantity of disorders in cardiac rhythm which occurred.
Male Wistar rats (250-350 g) were superficially anaesthetized with ether and investigated for rhythm disorders. Animals with rhythm abnormalities before the start of the experiment were excluded. In acute surgery, the animals were again anaesthetized with ether. In the lateral dorsal position, the thorax was opened somewhat to the left alongside the central line and the heart was exteriorized. Close below the left heart auricle, a silk ligature (3-0) was looped through the muscle of the left heart under the anterior coronary artery. Animals which developed rhythm disorders during this procedure were excluded. The left coronary artery was ligatured by the method described by Selye et al. (Angiology 11, 398, 1960), the heart was returned to the thorax and the wound was rapidly closed with thread. Since the thorax had not been opened for longer than about 45 seconds, artificial respiration of the animals was unnecessary. The operation mortality was between 25 and 40% within the first hours, and in particular myocardial haemorrhages, rhythm disorders with ventricular fibrillation, and massive cardiac infractions occurred. In a sham-operatedgroup, the same experimental conditions were investigated, with the exception that the coronary artery remained open. Shortly after the ligature had been made, early rhythm disorders were observed, which were accompanied in some cases (untreated) with ventricular fibrillations. In most cases, this ventricular fibrillation spontaneously turned into uniform sinus rhythm of heart contraction. The disorders in cardiac rhythm were evaluated by the plan described by Clark (see above). Ventricular tachycardia was defined as the result of more than 10 successive rhythm disorders with extrasystoles. Electrocardiographic changes included a rise in the ST segment, a drop in the Q waves and a rise in the QT interval. The total number of ectopic activity in each individual animal was determined by counting the ventricular extrasystoles, including tachycardia and fibrillations.
Three groups were investigated: group I received the diluent (1% strength aqueous Tylose suspension, that is to say methylhydroxyethyl-cellulose) twice daily perorally (0.5 ml/kg) for 10 days and by the same administration and in the same amount, after coronary ligature, for a further 20 days; group II was pretreated with the diluent for 10 days (0.5 ml/kg) and was treated with 30 or 100 mg/kg of nafazatrom (in each case suspended in 0.5 ml/kg of 1% strength Tylose suspension) twice daily perorally for 20 days, after coronary ligature (the first nafazatrom administration was effected immediately after the coronary ligature); group III received the above oral doses of nafazatrom in the course of 10 days before the ligature, and the diluent Tylose suspension for 10 days after the coronary occlusion had been effected. The sham-operated animals remained untreated. The peripheral ECG in the extremities was determined in lead II, and in particular, as a control before the start of treatment, shortly before and during coronary ligature, 10 minutes after coronary ligature had been effected, and--after renewed ether anaesthesia-- between the 2nd and 4th hour after coronary occlusion. Each time, the animals were superficially anaesthetized again with ether when the ECG was recorded. At the end of the treatment period, a last ECG was recorded shortly before the animals were sacrificed. […]

[6] = test system: hydroperoxidase portion of cyclooxygenase; conditions: T. E. Eling et al., 1982; cited from earlier work
[7] = Antiasthmatic, inflammation-inhibiting and gastro-protective action; conditions: in words
[8] = test system: 15-hydroxyprostaglandin dehydrogenase; conditions: Wong and McGiff, 1982; cited from earlier work
[9] = test system: cyclooxygenase; assay: Cyclooxygenase inhibition; format: biochemical; conditions: on administration of nafazatrom
[10] = group II, after-treatment 30 mg/kg, 2 × daily, 15 animals
[11] = group II, after-treatment 30 mg/kg, 2 × daily, 9 animals
[12] = group II, after-treatment 100 mg/kg, 2 × daily, 18 animals
[13] = group III, pre-treatment 30 mg/kg, 10 days, 12 animals
[14] = group III, pre-treatment 30 mg/kg, 10 days, 10 animals
[15] = group III, pre-treatment 100 mg/kg, 10 days, 16 animals
[16] = group III, pre-treatment 100 mg/kg, 10 days, 11 animals

CC1=NN(CCOc2ccc3ccccc3c2)C(=O)C1 [nafazatrom, 3-methyl-1-[2-(2-naphthyloxy)-ethyl]-2-pyrazolin-5-one]
antithrombotic effectiveness [1]: effective arterially and venously
inhibition at 1 µg/mL ([2]; Homo sapiens, Leucocyte, 1 ug/ml, read-out: Inhibition in % in comparison with the control (leukotriene B4 biosynthesis)): 30%
inhibition at 3 µg/mL ([2]; Homo sapiens, Leucocyte, 3 ug/ml, read-out: Inhibition in % in comparison with the control (leukotriene B4 biosynthesis)): 75%
inhibition at 5 µg/mL ([2]; Homo sapiens, Leucocyte, 5 ug/ml, read-out: Inhibition in % in comparison with the control (leukotriene B4 biosynthesis)): 90%
inhibition at 10 µg/mL ([2]; Homo sapiens, Leucocyte, 10 ug/ml, read-out: Inhibition in % in comparison with the control (leukotriene B4 biosynthesis)): 100%
concentration range of inhibition of LTB4 biosynthesis ([2]; as a function of the concentration): 1 to 10 µg/mL
antithrombotic effectiveness [3]: also effective in the coronary arteries of dogs
inhibition of 12-lipoxygenase [4]: not inhibited
irregularities in comparison with the control animals ([5]; early (0-10 minutes) and late phase (2-4 hours)): significantly fewer irregularities
Duration of VF (seconds), early [5, 10]: 65 s
Duration of VT (seconds), early [5, 10]: 72 s
Extrasystoles %, early [5, 10]: 94%
Duration of VF (seconds), late [5, 11]: 0 s
Duration of VT (seconds), late [5, 11]: 4 s
Extrasystoles %, late [5, 11]: 6%
Duration of VF (seconds), early [5, 12]: 68 s
Duration of VT (seconds), early [5, 12]: 60 s
Extrasystoles %, early [5, 12]: 90%
Duration of VF (seconds), late [5, 12]: 0 s
Duration of VT (seconds), late [5, 12]: 0 s
Extrasystoles %, late [5, 12]: 0%
Duration of VF (seconds), early [5, 13]: 5 s
Duration of VT (seconds), early [5, 13]: 9 s
Extrasystoles %, early [5, 13]: 34%
Duration of VF (seconds), late [5, 14]: 11 s
Duration of VT (seconds), late [5, 14]: 10 s
Extrasystoles %, late [5, 14]: 25%
Duration of VF (seconds), early [5, 15]: 0 s
Duration of VT (seconds), early [5, 15]: 13 s
Extrasystoles %, early [5, 15]: 25%
Duration of VF (seconds), late [5, 16]: 6 s
Duration of VT (seconds), late [5, 16]: 10 s
Extrasystoles %, late [5, 16]: 4%
prevention of rhythm disorders ([5]; pre-treatment of 100 mg/kg): prevent almost all the rhythm disorders
action on hydroperoxidase portion of cyclooxygenase; conversion of arachidonic acid into PGH2 [6]: acts as a reducing cofactor of the hydroperoxidase portion of cyclooxygenase and accelerates the conversion of arachidonic acid into PGH2
antiasthmatic, inflammation-inhibiting and gastro-protective action [7]: marked antiasthmatic, inflammation-inhibiting and gastro-protective action
blocking of 15-hydroxyprostaglandin dehydrogenase [8]: blocks 15-hydroxyprostaglandin dehydrogenase
inhibition of cyclooxygenase [9]: No such inhibition of cyclooxygenase
